According to publication PMC9832505, “Cell Adhesion Motif-Functionalized Lipopeptides: Nanostructure and Selective Myoblast Cytocompatibility” (Biomacromolecules, 2022):
Residues, ends and D or L forms follow the SMILES beside them.

What was measured:
[1] = test system: C2C12 immortalized mouse myoblast; experiment: MTT cytotoxicity assay on C2C12 myoblasts; type: cell-based; conditions: for cell viability: 72 h, 0.1 wt %; for tolerance of hydrogels in words: C2C12 on hydrogels (1 wt %), 24 h and 72 h, MTT
Method: (§1) L929 murine fibroblast and C2C12 immortalized mouse myoblast cell lines (both from ECACC General Cell Collection) were grown in Dulbecco’s modified Eagle’s medium (DMEM) supplemented with 10% fetal bovine serum, 20 mM HEPES, and 1% GlutaMAX. The cells were maintained at pH 7.4, 37 °C, and 5% CO2 in 25 cm^2 cell culture flasks.
(§2) Cells were seeded in 96-well plates at a density of 0.6 × 10^4 cells per well. Cells were then treated with peptides dissolved in the medium at the concentrations of 0.1 and 1 × 10^–4 wt %. To test cytocompatibility in the presence of the hydrogels, wells were filled with 1 wt % mG and pG hydrogels before seeding. At the end of the treatment (after 24 or 72 h), cell viability was assessed using an MTT [3-(4, 5-dimethylthiazolyl-2)-2, 5-diphenyltetrazolium bromide] assay. In brief, after the removal of the culture medium, MTT, dissolved in DMEM at a concentration of 0.5 mg/mL, was added to the cells and incubated for 4 h at 37 °C. The resulting formazan crystals were dissolved by adding dimethyl sulfoxide. Absorbance values of blue formazan were determined at 560 nm using an automatic plate reader. Cell survival was expressed as a percentage of viable cells in the presence of peptides, compared to control cells grown in their absence. The assay was repeated three times, and the results were averaged. Statistical significance was tested using multiple Welch’s t-tests. All analyses were conducted using Prism 7.

L929 murine fibroblast = experiment: MTT cytotoxicity assay on L929 fibroblasts; type: cell-based, mouse; conditions: for cell viability: 0.1 wt %; for cell survival: 1 wt %
Method: as §1, §2

[2] = not given; remark: listed apart in the source
[3] = not given; remark: listed apart in the source

Row | Structure (SMILES) | cell viability [1] [%] | tolerance of hydrogels in words [1] | cell viability (L929 murine fibroblast; 72 h) [%] | nanotape mean thickness in hydrogel [nm] | cell survival (L929 murine fibroblast; 24 h) [%] | cell survival (L929 murine fibroblast; 72 h) [%] | fiber mean diameter [2] [nm] | nanotube radius [3] [Å]
1 | CCCCCCCCCCCCCCCC(=O)NCC(=O)NCC(=O)NCC(=O)N[C@@H](CCCNC(=N)N)C(=O)NCC(=O)N[C@@H](CC(=O)O)C(=O)N[C@@H](CO)C(=O)O [pG, C16-GGGRGDS] (HELM PEPTIDE1{[CCCCCCCCCCCCCCCC(=O)[*:2]].G.G.G.R.G.D.S}$$$$V2.0) | 86.0 ± 6.8 | reasonably well tolerated | 31.8 ± 5.1 | – | – | – | – | –
2 | CCCCCCCCCCCCCC(=O)NCC(=O)NCC(=O)NCC(=O)N[C@@H](CCCNC(=N)N)C(=O)NCC(=O)N[C@@H](CC(=O)O)C(=O)N[C@@H](CO)C(=O)O [mG, C14-GGGRGDS] (HELM PEPTIDE1{[CCCCCCCCCCCCCC(=O)[*:2]].G.G.G.R.G.D.S}$$$$V2.0) | 84.4 ± 9.6 | reasonably well tolerated | 30.7 ± 4.7 | 13.6 | 92.6 ± 8.8 | 94.6 ± 12.6 | – | –
3 | CCCCCCCCCCCCCCCC(=O)N[C@@H](Cc1c[nH]c2ccccc12)C(=O)NCC(=O)NCC(=O)N[C@@H](CCCNC(=N)N)C(=O)NCC(=O)N[C@@H](CC(=O)O)C(=O)N[C@@H](CO)C(=O)O [pW, C16-WGGRGDS] (HELM PEPTIDE1{[CCCCCCCCCCCCCCCC(=O)[*:2]].W.G.G.R.G.D.S}$$$$V2.0) | 73.3 ± 2.8 | – | 36.3 ± 5.1 | – | – | – | 4 | –
4 | CCCCCCCCCCCCCC(=O)N[C@@H](Cc1c[nH]c2ccccc12)C(=O)NCC(=O)NCC(=O)N[C@@H](CCCNC(=N)N)C(=O)NCC(=O)N[C@@H](CC(=O)O)C(=O)N[C@@H](CO)C(=O)O [mW, C14-WGGRGDS] (HELM PEPTIDE1{[CCCCCCCCCCCCCC(=O)[*:2]].W.G.G.R.G.D.S}$$$$V2.0) | 72.3 ± 10.2 | – | 28.1 ± 3.1 | – | – | – | – | 750
